Results taken from ChEMBL document CHEMBL4261636, “Design of Y2 Receptor Selective and Proteolytically Stable PYY3-36 Analogues” (J Med Chem, 2018).
Bridge positions count the residues as written; N and C are the ends. Square brackets hold non-standard residues; d marks the D form. Peptide text beside a SMILES is read from it. Ahx = NCCCCCC(=O)O

Assays:
Homo sapiens [1] = organism: Homo sapiens; assay: Selectivity ratio of Ki for human Y1R expressed in BHK-21 cell membranes to Ki for human Y2R expressed in CHO cell membranes; type: cell-based
Homo sapiens [2] = organism: Homo sapiens; assay: Selectivity ratio of Ki for human Y5R expressed in HEK293 cell membranes to Ki for human Y2R expressed in CHO cell membranes; type: cell-based
Homo sapiens [3] = organism: Homo sapiens; assay: Selectivity ratio of Ki for human Y4R expressed in CHO-K1 cell membranes to Ki for human Y2R expressed in CHO cell membranes; type: cell-based
[4] = biological target: T1, Neuropeptide Y receptor type 2 (Homo sapiens, UniProt P49146); assay: Displacement of [125I]-PYY(1 to 36 residues) from human Y2R expressed in CHO cell membranes after 2 hrs by scintillation proximity assay
T1 sequence (P49146 whole entry): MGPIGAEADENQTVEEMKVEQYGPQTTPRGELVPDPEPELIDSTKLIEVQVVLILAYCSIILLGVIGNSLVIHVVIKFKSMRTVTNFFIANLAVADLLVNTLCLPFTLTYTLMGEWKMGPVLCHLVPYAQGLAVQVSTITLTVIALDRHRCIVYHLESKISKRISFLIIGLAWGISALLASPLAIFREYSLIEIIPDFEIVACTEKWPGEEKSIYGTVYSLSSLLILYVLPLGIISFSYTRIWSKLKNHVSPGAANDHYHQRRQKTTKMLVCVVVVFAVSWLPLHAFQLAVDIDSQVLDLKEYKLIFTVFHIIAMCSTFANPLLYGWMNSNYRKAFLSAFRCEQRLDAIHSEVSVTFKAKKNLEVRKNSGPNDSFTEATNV

[5] = biological target: T2, Neuropeptide Y receptor type 5 (Homo sapiens, UniProt Q15761); assay: Displacement of [125I]-PYY(1 to 36 residues) from human Y5R expressed in HEK293 cell membranes after 2 hrs by scintillation proximity assay
T2 sequence (Q15761 whole entry): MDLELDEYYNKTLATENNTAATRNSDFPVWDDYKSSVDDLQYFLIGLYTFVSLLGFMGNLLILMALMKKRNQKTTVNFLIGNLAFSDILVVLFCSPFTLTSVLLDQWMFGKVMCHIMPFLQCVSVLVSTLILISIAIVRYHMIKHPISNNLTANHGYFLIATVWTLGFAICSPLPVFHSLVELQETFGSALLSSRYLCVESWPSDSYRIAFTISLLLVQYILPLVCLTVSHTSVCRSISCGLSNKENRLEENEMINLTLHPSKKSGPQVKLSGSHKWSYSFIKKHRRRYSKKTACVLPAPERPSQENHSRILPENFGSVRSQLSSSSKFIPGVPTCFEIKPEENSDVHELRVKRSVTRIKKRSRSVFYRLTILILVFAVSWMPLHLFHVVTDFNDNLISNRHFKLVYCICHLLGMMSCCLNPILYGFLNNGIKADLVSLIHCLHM

[6] = biological target: T3, Neuropeptide Y receptor type 1 (Homo sapiens, UniProt P25929); assay: Displacement of [125I]-PYY(1 to 36 residues) from human Y1R expressed in BHK-21 cell membranes after 2 hrs by scintillation proximity assay
T3 sequence (P25929 whole entry): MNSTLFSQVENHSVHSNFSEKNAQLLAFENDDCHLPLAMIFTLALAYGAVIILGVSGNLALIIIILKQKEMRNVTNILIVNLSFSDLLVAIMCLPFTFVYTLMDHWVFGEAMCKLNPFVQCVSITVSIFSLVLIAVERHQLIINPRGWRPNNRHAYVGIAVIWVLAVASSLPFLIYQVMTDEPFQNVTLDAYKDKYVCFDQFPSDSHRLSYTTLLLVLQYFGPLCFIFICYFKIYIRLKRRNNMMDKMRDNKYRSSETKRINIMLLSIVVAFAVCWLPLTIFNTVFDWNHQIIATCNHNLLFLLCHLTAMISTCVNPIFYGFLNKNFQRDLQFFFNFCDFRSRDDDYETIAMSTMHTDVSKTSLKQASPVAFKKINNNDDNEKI

[7] = biological target: T4, Neuropeptide Y receptor type 4 (Homo sapiens, UniProt P50391); assay: Displacement of [125I]-PP from human Y4R expressed in CHO-K1 cell membranes after 2 hrs by scintillation proximity assay
[8] = biological target: T3, Neuropeptide Y receptor type 1; assay: Activation of human Y1R expressed in HEK293 cells assessed as inhibition of isoproterenol-induced increase in intracellular cAMP levels by calcium 5 dye-based FLIPR assay; type: functional, cell-based; details: for EC50: read-out: EC50; for pEC50: hek293
[9] = biological target: T1, Neuropeptide Y receptor type 2; assay: Activation of human Y2R expressed in HEK293 cells assessed as inhibition of isoproterenol-induced increase in intracellular cAMP levels by calcium 5 dye-based FLIPR assay; type: functional, cell-based; details: read-out: EC50
[10] = biological target: T4, Neuropeptide Y receptor type 4; assay: Activation of human Y4R expressed in HEK293 cells assessed as inhibition of isoproterenol-induced increase in intracellular cAMP levels by calcium 5 dye-based FLIPR assay; type: functional, cell-based; details: for pEC50: hek293
[11] = biological target: T2, Neuropeptide Y receptor type 5; assay: Activation of human Y5R expressed in HEK293 cells assessed as inhibition of isoproterenol-induced increase in intracellular cAMP levels by calcium 5 dye-based FLIPR assay; type: functional, cell-based

T4 sequence (P50391 whole entry): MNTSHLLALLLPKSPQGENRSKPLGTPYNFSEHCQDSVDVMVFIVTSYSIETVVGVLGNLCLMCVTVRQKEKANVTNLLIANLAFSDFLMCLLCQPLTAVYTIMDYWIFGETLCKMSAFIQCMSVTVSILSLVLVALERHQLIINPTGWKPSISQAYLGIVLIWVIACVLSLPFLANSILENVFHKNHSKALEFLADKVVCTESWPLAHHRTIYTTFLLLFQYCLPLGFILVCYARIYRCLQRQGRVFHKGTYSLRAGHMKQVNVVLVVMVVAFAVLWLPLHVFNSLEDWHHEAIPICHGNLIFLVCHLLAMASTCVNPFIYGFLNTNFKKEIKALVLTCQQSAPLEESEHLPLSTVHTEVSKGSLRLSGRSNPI

| Compound | Ratio Ki (Homo sapiens [1]) | Ratio Ki (Homo sapiens [2]) | Ratio Ki (Homo sapiens [3]) | Ki [4] [nM] | Ki [5] [nM] | Ki [6] [nM] | pKi ([6]; bhk-21) | Ki [7] [nM] | EC50 [8] [nM] | EC50 [9] [nM] | EC50 [10] [nM] | EC50 [11] [nM] | pEC50 [8] | pEC50 [10] |
| --- | --- | --- | --- | --- | --- | --- | --- | --- | --- | --- | --- | --- | --- | --- |
| CC[C@H](C)[C@H](NC(=O)[C@H](Cc1ccc(O)cc1)NC(=O)[C@H](Cc1c[nH]cn1)NC(=O)[C@H](CCCN=C(N)N)NC(=O)CCCCCNC(=O)[C@H](CCCCN)NC(=O)[C@H](CO)NC(=O)[C@@H]1CCCN1C(=O)[C@@H](N)Cc1ccc(O)cc1)C(=O)N[C@@H](CC(N)=O)C(=O)N[C@@H](CC(C)C)C(=O)N[C@H](C(=O)N[C@H](C(=O)N[C@@H](CCCN=C(N)N)C(=O)N[C@@H](CCC(N)=O)C(=O)N[C@@H](CCCN=C(N)N)C(=O)N[C@@H](Cc1ccc(O)cc1)C(=O)O)[C@@H](C)O)[C@@H](C)CC (H-YPSK[Ahx]RHYINLITRQRY-OH) | 31 | 100 | 15 |  |  |  |  |  |  |  |  |  |  |  |
| CC[C@H](C)[C@@H]1NC(=O)[C@H](CC(C)C)NC(=O)[C@H](CC(N)=O)NC(=O)[C@@H](NC(=O)[C@H](Cc2ccc(O)cc2)NC(=O)[C@H](Cc2cnc[nH]2)NC(=O)[C@H](CCCNC(=N)N)NC(C)=O)CCC(=O)NCCCC[C@@H](C(=O)N[C@@H](CCCNC(=N)N)C(=O)N[C@@H](CCC(N)=O)C(=O)N[C@@H](CCCNC(=N)N)C(=O)N[C@@H](Cc2ccc(O)cc2)C(=O)O)NC1=O (Ac-RHYENLIKRQRY-OH; lactam 4-8) | > 130 | 63 | 20 | 79 | 5000 | > 10000 | < 5 | 1600 |  |  |  |  |  |  |
| CC[C@H](C)[C@H](NC(=O)[C@H](Cc1ccc(O)cc1)NC(=O)[C@H](Cc1cnc[nH]1)NC(=O)[C@H](CCCNC(=N)N)NC(=O)CCCCCNC(=O)[C@H](CCCCN)NC(=O)[C@H](CO)NC(=O)[C@@H]1CCCN1C(=O)[C@@H](N)Cc1ccc(O)cc1)C(=O)N[C@@H](CC(N)=O)C(=O)N[C@@H](CC(C)C)C(=O)N[C@H](C(=O)N[C@H](C(=O)N[C@@H](CCCNC(=N)N)C(=O)N[C@@H](CCC(N)=O)C(=O)N[C@@H](CCCNC(=N)N)C(=O)N[C@@H](Cc1ccc(O)cc1)C(=O)O)[C@@H](C)O)[C@@H](C)CC (H-YPSK[Ahx]RHYINLITRQRY-OH) |  |  |  | 13 | 1300 | 400 |  | 200 |  |  |  |  |  |  |
| CC[C@H](C)[C@H](NC(=O)[C@H](Cc1ccc(O)cc1)NC(=O)[C@H](CCCNC(=N)N)NC(=O)[C@H](CCCNC(=N)N)NC(=O)[C@H](CC(C)C)NC(=O)[C@H](CC(=O)O)NC(=O)[C@H](C)NC(=O)[C@H](C)NC(=O)[C@H](Cc1ccc(O)cc1)NC(=O)[C@H](CCC(N)=O)NC(=O)[C@H](C)NC(=O)[C@H](CCSC)NC(=O)[C@H](CCC(N)=O)NC(=O)[C@H](CCC(=O)O)NC(=O)[C@@H]1CCCN1C(=O)[C@@H](NC(=O)[C@H](C)NC(=O)[C@H](CC(N)=O)NC(=O)[C@H](CC(=O)O)NC(=O)CNC(=O)[C@@H]1CCCN1C(=O)[C@H](Cc1ccc(O)cc1)NC(=O)[C@@H](NC(=O)[C@@H]1CCCN1C(=O)[C@H](CCC(=O)O)NC(=O)[C@H](CC(C)C)NC(=O)[C@@H]1CCCN1C(=O)[C@H](C)N)C(C)C)[C@@H](C)O)C(=O)N[C@@H](CC(N)=O)C(=O)N[C@@H](CCSC)C(=O)N[C@@H](CC(C)C)C(=O)N[C@H](C(=O)N[C@@H](CCCNC(=N)N)C(=O)N[C@@H](CCC(N)=O)C(=O)N[C@@H](CCCNC(=N)N)C(=O)N[C@@H](Cc1ccc(O)cc1)C(=O)O)[C@@H](C)O | 6.3 | 0.21 | 0.02 | 6.3 | 1.3 | 40 |  | 0.1 | 16 | 16 | 0.2 | 6.3 |  |  |
| CC[C@H](C)[C@@H]1NC(=O)[C@H](Cc2ccc(O)cc2)NC(=O)[C@H](Cc2cnc[nH]2)NC(=O)[C@H](CCCNC(=N)N)NC(=O)CCCCCNC(=O)[C@H](CCCCN)NC(=O)[C@H](CO)NC(=O)[C@@H](NC(=O)[C@@H](N)Cc2ccc(O)cc2)CCC(=O)NCCCC[C@@H](C(=O)N[C@H](C(=O)N[C@H](C(=O)N[C@@H](CCCNC(=N)N)C(=O)N[C@@H](CCC(N)=O)C(=O)N[C@@H](CCCNC(=N)N)C(=O)N[C@@H](Cc2ccc(O)cc2)C(=O)O)[C@@H](C)O)[C@@H](C)CC)NC(=O)[C@H](CC(N)=O)NC1=O (H-YESK[Ahx]RHYINKITRQRY-OH; lactam 2-11) | 250 | 320 | 13 | 2 | 630 | 500 |  | 25 | > 1000 | 7.6 | > 1000 | 500 | < 6 | < 6 |
| CC[C@H](C)[C@@H]1NC(=O)[C@@H](NC(=O)[C@@H](N)Cc2ccc(O)cc2)CCC(=O)NCCCC[C@@H](C(=O)N[C@H](C(=O)N[C@H](C(=O)N[C@@H](CCCNC(=N)N)C(=O)N[C@@H](CCC(N)=O)C(=O)N[C@@H](CCCNC(=N)N)C(=O)N[C@@H](Cc2ccc(O)cc2)C(=O)O)[C@@H](C)O)C(C)C)NC(=O)[C@H](CC(N)=O)NC(=O)[C@H](CC(C)C)NC(=O)[C@H](Cc2ccc(O)cc2)NC(=O)[C@H](Cc2cnc[nH]2)NC(=O)[C@H](CCCNC(=N)N)NC(=O)CCCCCNC(=O)[C@H](CCCCN)NC1=O | 1000 | 610 | 39 | 1.3 | 790 | 1300 |  | 50 | > 1000 | 2 | > 1000 | 400 | < 6 | < 6 |
